Patent US20260159482A1, “CRYSTAL FORM AND AMORPHOUS FORM OF CAREBASTINE P-TOLUENESULFONATE” (priority 2023, published 2026)
Where a name gives a salt, the structure may show the parent alone. Read-outs that look alike come from different tables or passages of the source.

Legend:
[1] = for AUC0-t / Cmax / T1/2 / Tmax / increase in AUC0-t compared with Comparative Example 1 / increase in AUC0-t compared with Comparative Example 2 / increase in Cmax compared with Comparative Example 1 / increase in Cmax compared with Comparative Example 2: male; for AUC0-t / Cmax / T1/2 / Tmax / Tmax compared with Comparative Example 2 / half-life (T1/2) compared with Comparative Example 2 / increase in AUC0-t compared with Comparative Example 1 / increase in AUC0-t compared with Comparative Example 2 / increase in Cmax compared with Comparative Example 1 / increase in Cmax compared with Comparative Example 2: dog, in vivo; for AUC0-t / Cmax / T1/2 / Tmax: po, 2.23 mg; for half-life (T1/2) compared with Comparative Example 1 / peak time (Tmax) compared with Comparative Example 1: vs ebastine
Protocol: Ebastine (Comparative Example 1), carebastine (Comparative Example 2), a crystal form of carebastine p-toluenesulfonate (Example 2) and an amorphous form of carebastine p-toluenesulfonate (Example X) were prepared into enteric capsules, respectively.
• Species: Beagle; • Level: normal level; • Animal number and gender: 8 males; • Age: […] old during grouping; • Body weight: the weight during grouping ranged from 8.90 to 10.3 kg, with an average of 10.0 kg.
Dose: in terms of carebastine, each group was dosed at equimolar dose, and appropriate amounts of compounds were weighed and filled into capsules. That is, the drug of carebastine in each capsule is 2.23 mg.
After the test compounds were filled into capsules, 2×4 crossover tests were carried out according to the table above. A 7-day elution period was counted from the start of administration. The corresponding test compounds were administered to each group in different test cycles.
All animals were fasted overnight (for 12 h or more) before each administration, and feeding was resumed 4 h after the administration. The animals had free access to drinking water.
Blood samples were collected at 0 h before administration, and at 10 min, 20 min, 30 min, 45 min, 1 h, 2 h, 3 h, 5 h, 6 h, 8 h, 10 h and 24 h after administration, for a total of 13 blood collection time points.
Approximately 2 mL of blood was collected from a forelimb vein at the set blood collection time points and placed in an EDTA-K2 anticoagulation tube. Whole blood samples were kept at room temperature for 1.5 h after the collection and then centrifuged (at 3000 g centrifugal force, 4° C.) for 10 min.
The concentration of carebastine in plasma was determined using liquid chromatography-mass spectrometry-mass spectrometry (HPLC-MS/MS).
The pharmacokinetic parameters of each group were calculated using the non-compartmental model with the WinNonlin software (version 8.3 or higher).

[2] = Hygroscopicity study (weight gain at 25° C., RH 80%, 24 h); format: physicochemical
Protocol: • (1) The day prior to the test, a dry glass weighing bottle (with an outer diameter of 50 mm and a height of 15 mm) with a lid was placed in a suitable constant temperature dryer (the lower part of which holds a saturated solution of ammonium chloride or ammonium sulphate) at 25° C.±1° C. or an artificial climate chamber (at a temperature of 25° C.±1° C. and a relative humidity of 80%±2%), and the weight (m1) of the bottle with the lid was precisely weighed. • (2) An appropriate amount of the sample to be tested was evenly laid in the weighing bottle, with a thickness of generally about 1 mm, and the weight (m2) of the bottle with the lid was precisely weighed. • (3) The weighing bottle was kept open and placed together with the lid under constant temperature and humidity for 24 h. • (4) The weighing bottle was covered with the lid, and the weight (m3) was precisely weighed. • (5) Percentage of weight gain=(m3−m2)/(m2−m1)×100%.

[3] = Stability study: influencing factors (high temperature, high humidity, light exposure), HPLC content; format: physicochemical; details: for Content, 0 day: HPLC external standard; for Content, High humidity, 30 days: high humidity (RH80%); for Content, High temperature, 30 days: high temperature (60° C.); for Content, Light exposure, 30 days: light exposure (5000 Lux)
Protocol: 3 parts of each of the samples, carebastine (Comparative Example 2), the crystal form of carebastine p-toluenesulfonate (Example 2), and the amorphous form of carebastine p-toluenesulfonate (Example X), were weighed and placed in a weighing bottle, respectively, and each group of samples was placed under conditions of high temperature (60° C.), high humidity (RH80%) and light exposure (5000 Lux). Then, the samples were taken for detection after 30 days.
Detection method: An appropriate amount of each sample was taken, weighed precisely, dissolved with acetonitrile and quantitatively diluted into a solution containing about 0.08 mg of sample per 1 ml. High performance liquid chromatography (HPLC) was used, with octadecylsilane-bonded silica gel as filler, water-acetonitrile (1:1) as mobile phase, a detection wavelength of 256 nm, a column temperature of 35° C. and an injection volume of 10 μl. Each sample solution was injected into the liquid chromatograph instrument, and the chromatograms were recorded. The content of carebastine was calculated by an external standard method, and the impurity content was calculated by a peak area normalization method.

Row | SMILES | AUC0-t ([1]; beagle) [ng·h/mL] | Cmax ([1]; beagle) [ng/mL] | T1/2 ([1]; beagle) [h] | Tmax ([1]; beagle) [h] | Percentage of weight gain (%) [2] [%] | Content, 0 day [3] [%] | Content, High humidity, 30 days ([3]; 30 days) [%] | Content, High temperature, 30 days ([3]; 30 days) [%] | Content, Light exposure, 30 days ([3]; 30 days) [%] | half-life (T1/2) compared with Comparative Example 1 ([1]; beagle) | peak time (Tmax) compared with Comparative Example 1 ([1]; beagle) | Tmax compared with Comparative Example 2 [1] | half-life (T1/2) compared with Comparative Example 2 [1] | increase in AUC0-t compared with Comparative Example 1 ([1]; beagle) | increase in AUC0-t compared with Comparative Example 2 ([1]; beagle) | increase in Cmax compared with Comparative Example 1 ([1]; beagle) | increase in Cmax compared with Comparative Example 2 ([1]; beagle) | also measured
1 | CC(C)(C)c1ccc(C(=O)CCCN2CCC(OC(c3ccccc3)c3ccccc3)CC2)cc1 [Comparative Example 1, ebastine] | 749 ± 127 | 179 ± 85.7 | 4.06 ± 1.19 | 2.25 ± 0.7 |  |  |  |  |  |  |  |  |  |  |  |  |  | 
2 | CC(C)(C(=O)O)c1ccc(C(=O)CCCN2CCC(OC(c3ccccc3)c3ccccc3)CC2)cc1 [Comparative Example 2, 2-(4-(4-(4-(diphenylmethoxy)piperidine-1-yl)butyryl)phenyl)-2-methylpropanoic acid, reference compound] | 840 ± 161 | 191 ± 51.4 | 3.74 ± 2.02 | 0.82 ± 0.52 | 6 | 99.18 | 98.11 | 98.12 | 87.28 |  |  |  |  |  |  |  |  | content decrease under high temperature and high humidity ([3]; 30 days, high temperature and high humidity): more than 1.0%; content decrease under light exposure ([3]; 30 days, light exposure): more than 10%; content of the maximum single impurity ([3]; after 30 days of influencing factor tests, peak area normalization): more than 0.5%
3 | CC(C)(C(=O)O)c1ccc(C(=O)CCCN2CCC(OC(c3ccccc3)c3ccccc3)CC2)cc1 [Comparative Example 3, carebastine hydrochloride, reference compound] |  |  |  |  |  |  |  |  |  |  |  |  |  |  |  |  |  | Percentage of weight gain (%) ([2]; hydrochloride): 15.9%

Second part, led by results:

Row | AUC0-t ([1]; beagle) [ng·h/mL] | Cmax ([1]; beagle) [ng/mL] | T1/2 ([1]; beagle) [h] | Tmax ([1]; beagle) [h] | Percentage of weight gain (%) [2] [%] | Content, 0 day [3] [%] | Content, High humidity, 30 days ([3]; 30 days) [%] | Content, High temperature, 30 days ([3]; 30 days) [%] | Content, Light exposure, 30 days ([3]; 30 days) [%] | half-life (T1/2) compared with Comparative Example 1 ([1]; beagle) | peak time (Tmax) compared with Comparative Example 1 ([1]; beagle) | Tmax compared with Comparative Example 2 [1] | half-life (T1/2) compared with Comparative Example 2 [1] | increase in AUC0-t compared with Comparative Example 1 ([1]; beagle) | increase in AUC0-t compared with Comparative Example 2 ([1]; beagle) | increase in Cmax compared with Comparative Example 1 ([1]; beagle) | increase in Cmax compared with Comparative Example 2 ([1]; beagle) | SMILES | also measured
4 |  |  |  |  | −0.1 | 99.42 | 99.42 | 99.43 | 99.39 | prolonged | significantly shorter | essentially the same | prolonged | about 55% | about 38% | about 65% | about 55% | CC(C)(C(=O)O)c1ccc(C(=O)CCCN2CCC(OC(c3ccccc3)c3ccccc3)CC2)cc1.Cc1ccc(S(=O)(=O)O)cc1 [Example 2, carebastine p-toluenesulfonate] | Cmax and AUC0-t compared with Example X ([1]; beagle, vs amorphous form): slightly higher; T1/2 compared with Example X ([1]; beagle, vs amorphous form): slightly longer
5 |  |  |  |  | 0.3 | 98.59 | 98.58 | 98.54 | 98.51 | prolonged | significantly shorter | essentially the same | prolonged | ~31% | ~17% | ~46% | ~37% | CC(C)(C(=O)O)c1ccc(C(=O)CCCN2CCC(OC(c3ccccc3)c3ccccc3)CC2)cc1.Cc1ccc(S(=O)(=O)O)cc1 [Example X, carebastine p-toluenesulfonate] | 
